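48-hour exposure; five concentrations; linearly interpolated endpoints. GI50: concentration for 50% inhibition of growth. The concentration for full growth arrest is given as TGI.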
system: M14 melanoma; experiment: growth of human tumour cells (NCI), 48 h

Compound	TGI	GI50
CC(C)(C)[Si](C)(C)OCC1OC(n2cc(I)c(N)nc2=O)C(O[Si](C)(C)C(C)(C)C)C1O[Si](C)(C)C(C)(C)C (centres undefined)	16.9 µM	–
COc1cc(O)c2c(c1)OCC(Cc1ccc(O)cc1)C2=O (centres undefined)	> 100 µM	–
Cc1ccc2c3c(c(=O)[nH]c2c1)C1(C(C#N)=C(N)O3)c2cc(Br)ccc2-c2ccc(Br)cc21	17 µM	4.23 µM

system: SF-539 CNS; experiment: growth of human tumour cells (NCI), 48 h

Compound	TGI	GI50
CCOC(=O)C1(C(=O)OCC)C[C@H](C)[C@](C)(O)C1	> 100 µM	–
COc1cc2c3c(n(CCNCCCNCCn4c5c(c6cc(OC)c(OC)cc6c4=O)C(=O)c4ccccc4-5)c(=O)c2cc1OC)-c1ccccc1C3=O	15.5 µM	199 nM
COc1cc(O)c2c(c1)OCC(Cc1ccc(O)cc1)C2=O (centres undefined)	> 100 µM	–
Cc1ccc2c3c(c(=O)[nH]c2c1)C1(C(C#N)=C(N)O3)c2cc(Br)ccc2-c2ccc(Br)cc21	3.21 µM	1730 nM

system: NCI-H522 lung; experiment: growth of human tumour cells (NCI), 48 h

Compound	TGI	GI50
CCOC(=O)C1(C(=O)OCC)C[C@H](C)[C@](C)(O)C1	> 100 µM	–
COc1cc2c3c(n(CCNCCCNCCn4c5c(c6cc(OC)c(OC)cc6c4=O)C(=O)c4ccccc4-5)c(=O)c2cc1OC)-c1ccccc1C3=O	6.66 µM	< 42.3 nM
COc1cc(/C=C2\CN(C)CC3=C2NC(=S)NC3c2cc(OC)c(OC)c(OC)c2)cc(OC)c1OC (centres undefined)	> 100 µM	–
CC(C)(C)[Si](C)(C)OCC1OC(n2cc(I)c(N)nc2=O)C(O[Si](C)(C)C(C)(C)C)C1O[Si](C)(C)C(C)(C)C (centres undefined)	16.5 µM	–
COc1cc(O)c2c(c1)OCC(Cc1ccc(O)cc1)C2=O (centres undefined)	> 100 µM	–
Cc1ccc2c3c(c(=O)[nH]c2c1)C1(C(C#N)=C(N)O3)c2cc(Br)ccc2-c2ccc(Br)cc21	4.32 µM	1610 nM

system: MDA-MB-231 breast; experiment: growth of human tumour cells (NCI), 48 h

Compound	TGI	GI50
CCOC(=O)C1(C(=O)OCC)C[C@H](C)[C@](C)(O)C1	> 100 µM	–
COc1cc2c3c(n(CCNCCCNCCn4c5c(c6cc(OC)c(OC)cc6c4=O)C(=O)c4ccccc4-5)c(=O)c2cc1OC)-c1ccccc1C3=O	2.1 µM	178 nM
COc1cc(/C=C2\CN(C)CC3=C2NC(=S)NC3c2cc(OC)c(OC)c(OC)c2)cc(OC)c1OC (centres undefined)	> 100 µM	–
CC(C)(C)[Si](C)(C)OCC1OC(n2cc(I)c(N)nc2=O)C(O[Si](C)(C)C(C)(C)C)C1O[Si](C)(C)C(C)(C)C (centres undefined)	31.7 µM	–
COc1cc(O)c2c(c1)OCC(Cc1ccc(O)cc1)C2=O (centres undefined)	> 100 µM	–
Cc1ccc2c3c(c(=O)[nH]c2c1)C1(C(C#N)=C(N)O3)c2cc(Br)ccc2-c2ccc(Br)cc21	3.6 µM	1700 nM

system: HCT-116 colon; experiment: growth of human tumour cells (NCI), 48 h

Compound	TGI	GI50
CCOC(=O)C1(C(=O)OCC)C[C@H](C)[C@](C)(O)C1	> 100 µM	–
COc1cc2c3c(n(CCNCCCNCCn4c5c(c6cc(OC)c(OC)cc6c4=O)C(=O)c4ccccc4-5)c(=O)c2cc1OC)-c1ccccc1C3=O	1.16 µM	25.4 nM
CC(C)(C)[Si](C)(C)OCC1OC(n2cc(I)c(N)nc2=O)C(O[Si](C)(C)C(C)(C)C)C1O[Si](C)(C)C(C)(C)C (centres undefined)	24 µM	–
COc1cc(O)c2c(c1)OCC(Cc1ccc(O)cc1)C2=O (centres undefined)	> 100 µM	–
Cc1ccc2c3c(c(=O)[nH]c2c1)C1(C(C#N)=C(N)O3)c2cc(Br)ccc2-c2ccc(Br)cc21	4.35 µM	1940 nM

system: UO-31 renal; experiment: growth of human tumour cells (NCI), 48 h

Compound	TGI	GI50
CCOC(=O)C1(C(=O)OCC)C[C@H](C)[C@](C)(O)C1	> 100 µM	–
COc1cc2c3c(n(CCNCCCNCCn4c5c(c6cc(OC)c(OC)cc6c4=O)C(=O)c4ccccc4-5)c(=O)c2cc1OC)-c1ccccc1C3=O	> 100 µM	> 65100 nM
COc1cc(O)c2c(c1)OCC(Cc1ccc(O)cc1)C2=O (centres undefined)	> 100 µM	–
Cc1ccc2c3c(c(=O)[nH]c2c1)C1(C(C#N)=C(N)O3)c2cc(Br)ccc2-c2ccc(Br)cc21	2.74 µM	1330 nM

system: UACC-62 melanoma; experiment: growth of human tumour cells (NCI), 48 h

Compound	TGI	GI50
CCOC(=O)C1(C(=O)OCC)C[C@H](C)[C@](C)(O)C1	> 100 µM	–
COc1cc2c3c(n(CCNCCCNCCn4c5c(c6cc(OC)c(OC)cc6c4=O)C(=O)c4ccccc4-5)c(=O)c2cc1OC)-c1ccccc1C3=O	2.69 µM	1200 nM
COc1cc(/C=C2\CN(C)CC3=C2NC(=S)NC3c2cc(OC)c(OC)c(OC)c2)cc(OC)c1OC (centres undefined)	> 100 µM	–
CC(C)(C)[Si](C)(C)OCC1OC(n2cc(I)c(N)nc2=O)C(O[Si](C)(C)C(C)(C)C)C1O[Si](C)(C)C(C)(C)C (centres undefined)	23.7 µM	–
COc1cc(O)c2c(c1)OCC(Cc1ccc(O)cc1)C2=O (centres undefined)	> 100 µM	–
Cc1ccc2c3c(c(=O)[nH]c2c1)C1(C(C#N)=C(N)O3)c2cc(Br)ccc2-c2ccc(Br)cc21	11.3 µM	2190 nM

system: A549 NSCLC; experiment: growth of human tumour cells (NCI), 48 h

Compound	TGI	GI50
CCOC(=O)C1(C(=O)OCC)C[C@H](C)[C@](C)(O)C1	> 100 µM	–
COc1cc2c3c(n(CCNCCCNCCn4c5c(c6cc(OC)c(OC)cc6c4=O)C(=O)c4ccccc4-5)c(=O)c2cc1OC)-c1ccccc1C3=O	24.2 µM	187 nM
COc1cc(/C=C2\CN(C)CC3=C2NC(=S)NC3c2cc(OC)c(OC)c(OC)c2)cc(OC)c1OC (centres undefined)	> 100 µM	–
CC(C)(C)[Si](C)(C)OCC1OC(n2cc(I)c(N)nc2=O)C(O[Si](C)(C)C(C)(C)C)C1O[Si](C)(C)C(C)(C)C (centres undefined)	20.8 µM	–
COc1cc(O)c2c(c1)OCC(Cc1ccc(O)cc1)C2=O (centres undefined)	> 100 µM	–
Cc1ccc2c3c(c(=O)[nH]c2c1)C1(C(C#N)=C(N)O3)c2cc(Br)ccc2-c2ccc(Br)cc21	4.52 µM	2010 nM

system: DU-145 prostate; experiment: growth of human tumour cells (NCI), 48 h

Compound	TGI	GI50
CCOC(=O)C1(C(=O)OCC)C[C@H](C)[C@](C)(O)C1	> 100 µM	–
COc1cc2c3c(n(CCNCCCNCCn4c5c(c6cc(OC)c(OC)cc6c4=O)C(=O)c4ccccc4-5)c(=O)c2cc1OC)-c1ccccc1C3=O	30.8 µM	197 nM
COc1cc(/C=C2\CN(C)CC3=C2NC(=S)NC3c2cc(OC)c(OC)c(OC)c2)cc(OC)c1OC (centres undefined)	> 100 µM	–
CC(C)(C)[Si](C)(C)OCC1OC(n2cc(I)c(N)nc2=O)C(O[Si](C)(C)C(C)(C)C)C1O[Si](C)(C)C(C)(C)C (centres undefined)	28.6 µM	–
COc1cc(O)c2c(c1)OCC(Cc1ccc(O)cc1)C2=O (centres undefined)	> 100 µM	–
Cc1ccc2c3c(c(=O)[nH]c2c1)C1(C(C#N)=C(N)O3)c2cc(Br)ccc2-c2ccc(Br)cc21	12.1 µM	2980 nM

system: HT29 colon; experiment: growth of human tumour cells (NCI), 48 h

Compound	TGI	GI50
CCOC(=O)C1(C(=O)OCC)C[C@H](C)[C@](C)(O)C1	> 100 µM	–
COc1cc2c3c(n(CCNCCCNCCn4c5c(c6cc(OC)c(OC)cc6c4=O)C(=O)c4ccccc4-5)c(=O)c2cc1OC)-c1ccccc1C3=O	–	44.8 nM
COc1cc(/C=C2\CN(C)CC3=C2NC(=S)NC3c2cc(OC)c(OC)c(OC)c2)cc(OC)c1OC (centres undefined)	> 100 µM	–
CC(C)(C)[Si](C)(C)OCC1OC(n2cc(I)c(N)nc2=O)C(O[Si](C)(C)C(C)(C)C)C1O[Si](C)(C)C(C)(C)C (centres undefined)	20.3 µM	–
COc1cc(O)c2c(c1)OCC(Cc1ccc(O)cc1)C2=O (centres undefined)	> 100 µM	–
Cc1ccc2c3c(c(=O)[nH]c2c1)C1(C(C#N)=C(N)O3)c2cc(Br)ccc2-c2ccc(Br)cc21	6.06 µM	2250 nM

system: SNB-19 CNS; experiment: growth of human tumour cells (NCI), 48 h

Compound	TGI	GI50
CCOC(=O)C1(C(=O)OCC)C[C@H](C)[C@](C)(O)C1	> 100 µM	–
COc1cc2c3c(n(CCNCCCNCCn4c5c(c6cc(OC)c(OC)cc6c4=O)C(=O)c4ccccc4-5)c(=O)c2cc1OC)-c1ccccc1C3=O	4.26 µM	162 nM
COc1cc(O)c2c(c1)OCC(Cc1ccc(O)cc1)C2=O (centres undefined)	> 100 µM	–
Cc1ccc2c3c(c(=O)[nH]c2c1)C1(C(C#N)=C(N)O3)c2cc(Br)ccc2-c2ccc(Br)cc21	6.01 µM	2120 nM

system: IGROV1 ovarian; experiment: growth of human tumour cells (NCI), 48 h

Compound	TGI	GI50
CCOC(=O)C1(C(=O)OCC)C[C@H](C)[C@](C)(O)C1	> 100 µM	–
COc1cc2c3c(n(CCNCCCNCCn4c5c(c6cc(OC)c(OC)cc6c4=O)C(=O)c4ccccc4-5)c(=O)c2cc1OC)-c1ccccc1C3=O	9.57 µM	52.3 nM
COc1cc(/C=C2\CN(C)CC3=C2NC(=S)NC3c2cc(OC)c(OC)c(OC)c2)cc(OC)c1OC (centres undefined)	> 100 µM	–
CC(C)(C)[Si](C)(C)OCC1OC(n2cc(I)c(N)nc2=O)C(O[Si](C)(C)C(C)(C)C)C1O[Si](C)(C)C(C)(C)C (centres undefined)	20.6 µM	–
COc1cc(O)c2c(c1)OCC(Cc1ccc(O)cc1)C2=O (centres undefined)	> 100 µM	–
Cc1ccc2c3c(c(=O)[nH]c2c1)C1(C(C#N)=C(N)O3)c2cc(Br)ccc2-c2ccc(Br)cc21	3.75 µM	1600 nM

system: SK-OV-3 ovarian; experiment: growth of human tumour cells (NCI), 48 h

Compound	TGI	GI50
CCOC(=O)C1(C(=O)OCC)C[C@H](C)[C@](C)(O)C1	> 100 µM	–
COc1cc2c3c(n(CCNCCCNCCn4c5c(c6cc(OC)c(OC)cc6c4=O)C(=O)c4ccccc4-5)c(=O)c2cc1OC)-c1ccccc1C3=O	32.2 µM	7.02 µM
COc1cc(/C=C2\CN(C)CC3=C2NC(=S)NC3c2cc(OC)c(OC)c(OC)c2)cc(OC)c1OC (centres undefined)	> 100 µM	–
CC(C)(C)[Si](C)(C)OCC1OC(n2cc(I)c(N)nc2=O)C(O[Si](C)(C)C(C)(C)C)C1O[Si](C)(C)C(C)(C)C (centres undefined)	32.8 µM	–
COc1cc(O)c2c(c1)OCC(Cc1ccc(O)cc1)C2=O (centres undefined)	> 100 µM	–
Cc1ccc2c3c(c(=O)[nH]c2c1)C1(C(C#N)=C(N)O3)c2cc(Br)ccc2-c2ccc(Br)cc21	6.45 µM	2.47 µM

system: HOP-62 NSCLC; experiment: growth of human tumour cells (NCI), 48 h

Compound	TGI	GI50
CCOC(=O)C1(C(=O)OCC)C[C@H](C)[C@](C)(O)C1	> 100 µM	–
COc1cc2c3c(n(CCNCCCNCCn4c5c(c6cc(OC)c(OC)cc6c4=O)C(=O)c4ccccc4-5)c(=O)c2cc1OC)-c1ccccc1C3=O	1.9 µM	61.4 nM
COc1cc(/C=C2\CN(C)CC3=C2NC(=S)NC3c2cc(OC)c(OC)c(OC)c2)cc(OC)c1OC (centres undefined)	> 100 µM	–
CC(C)(C)[Si](C)(C)OCC1OC(n2cc(I)c(N)nc2=O)C(O[Si](C)(C)C(C)(C)C)C1O[Si](C)(C)C(C)(C)C (centres undefined)	27.6 µM	–
COc1cc(O)c2c(c1)OCC(Cc1ccc(O)cc1)C2=O (centres undefined)	> 100 µM	–
Cc1ccc2c3c(c(=O)[nH]c2c1)C1(C(C#N)=C(N)O3)c2cc(Br)ccc2-c2ccc(Br)cc21	4.19 µM	1850 nM

system: BT-549 breast; experiment: growth of human tumour cells (NCI), 48 h

Compound	GI50	TGI
COc1cc2c3c(n(CCNCCCNCCn4c5c(c6cc(OC)c(OC)cc6c4=O)C(=O)c4ccccc4-5)c(=O)c2cc1OC)-c1ccccc1C3=O	2.87 µM	> 100 µM
Cc1ccc2c3c(c(=O)[nH]c2c1)C1(C(C#N)=C(N)O3)c2cc(Br)ccc2-c2ccc(Br)cc21	3.93 µM	19.8 µM

— PubChem BioAssay (NCI)
